# Source: US12534444B2, “Treatment of cancer/inhibition of metastasis” (Celex Oncology Innovations Limited, priority 2010, dated 2026)
# Test system: MDA-MB-231 cells
# Assay: Single-cell adhesion assay (SCAMA, detachment negative pressure)
# Format: cell-based, human
# Method: FIG. 4 is a schematic illustration of the single-cell adhesion measurement apparatus (SCAMA) first described in the paper by Palmer et al. (2008). Human breast cancer cells from the MDA-MB-231 cell line were plated at a density of 2.5×10^4 cells/ml and left to settle in a cell culture dish 401 for 48 hours prior to measurements. Medium was removed and 2 ml of the drug under study was applied for 10 minutes. Adhesion was measured using a glass micropipette 402 connected to a vacuum pump 403 via plastic tubing 404. The tip of the micropipette was drawn to about 20 μm (range, 17-24 μm) tip diameter. The vacuum pump was used to create negative pressure inside a reservoir 405 so that the negative pressure could be applied to the tip of the micropipette by pressing the thumb to the open end of a sealable T-piece 406. […] The pressure was measured using a digital manometer 409 connected to a computer 410 via a RS232 cable 411. Using a micromanipulator 412, the micropipette 402 was positioned on the periphery of a single cell. […] The negative pressure required to detach the cell was recorded on the computer as a pressure spike. The peak of the spike (“detachment negative pressure” (DNP)) was used as a measure of the cell's adhesiveness. Using this technique, several recordings could be made from a single dish within minutes. […] In order to test for the reversibility of a given effect, the pharmacological agent was washed off, fresh medium was added and the plate was incubated for a further 10 minutes prior to re-measurement. Each treatment was carried out on at least two dishes of cells, at least 100 cells per dish were measured, and the experiment was repeated three times (with corresponding controls). In the single cell adhesion experiments, hypoxia was induced chemically by application of hydrogen peroxide (1-500 μM) for 24 hours.
smiles,measurement,setting,value
COc1ccccc1OCC(O)CN1CCN(CC(=O)Nc2c(C)cccc2C)CC1 (centres unmarked) [ranolazine],ADHESION,"Hypoxia (chemically induced, hydrogen peroxide 24 hours), 0.1 μM",increased
same,ADHESION,"Hypoxia (chemically induced, hydrogen peroxide 24 hours), 1 μM",continued to increase
same,ADHESION,"Hypoxia (chemically induced, hydrogen peroxide 24 hours), 1 μM, listed as RANOLAZINE",increased
same,ADHESION,"Hypoxia (chemically induced, hydrogen peroxide 24 hours), 10 μM",continued to increase
same,ADHESION,"Hypoxia (chemically induced, hydrogen peroxide 24 hours), 10 μM, listed as RANOLAZINE",decreased
same,ADHESION,"Hypoxia (chemically induced, hydrogen peroxide 24 hours), 100 μM",continued to increase
same,ADHESION,"Hypoxia (chemically induced, hydrogen peroxide 24 hours), 100 μM, listed as RANOLAZINE",no benefit
same,ADHESION,"Normoxia, 0.1 μM",no effect
same,ADHESION,"Normoxia, 0.5 μM",increased
same,ADHESION,"Normoxia, 1 μM",increased
same,ADHESION,"Normoxia, 10 μM",increased
same,ADHESION,"Normoxia, 20 μM",increased
same,ADHESION,"Normoxia, 100 μM",increased
same,effect on adhesion in hypoxia compared with normoxia,before convergence at the higher drug concentrations,approximately 10 fold
